This is an account of results in patent publication US12390483B2, “Compounds and methods for treating neurological and cardiovascular conditions” (Astrocyte Pharmaceuticals, Inc., priority 2016, dated 2025).

The structures appear in SMILES notation.

A short description of data set [1]: In vitro stability of MRS2365 in mouse plasma. Format: in vitro ADME. The note with it: heparin-treated mouse plasma, 0-90 seconds, even at 0 and 5 seconds. As to the method:
(§1) Whole blood was obtained from male CD-1 mice and human volunteers at Seventh Wave Laboratories (Maryland Heights, MO). Plasma and blood samples were prepared using either EDTA (1 mM) or lithium heparin as anticoagulants.
Plasma Stability Determination: MRS2365, enalapril and procaine were solubilized in phosphate-buffered saline, pH 7.4. […] Stability incubations were initiated with the addition of MRS2365 (1 μM final concentration). Initial assessments of stability in EDTA-generated plasma utilized incubation timepoints of 0, 10, 30, 60, 120 and 240 minutes (FIGS. 3 and 4). Subsequent studies comparing EDTA- and heparin-generated plasma utilized incubation timepoints of 0, 1, 2.5, 5, 7.5, 10 and 30 minutes (FIG. 7). Additional plasma stability incubations comparing EDTA- and heparin-generated plasma were performed using timepoints of 0, 5, 10, 20, 30, 45, 60 and 90 seconds (FIG. 8). For metabolite scouting analyses, MRS2365 was incubated in heparinized human plasma at a concentration of 100 μM for 10 or 30 minutes (FIG. 9). In all studies, plasma was immediately placed in microtainer tubes, frozen on dry ice and stored at −80° C. until analysis.
The following table outlines the LC and MS/MS conditions employed (Table 11).
The calibration range for MRS2365 plasma and blood concentration standard curves was 5-5000 ng/mL. […]

Data set [2] is described as follows: Previous in vivo pharmacokinetic assessments of MRS2365 in mice. Particulars: heparin as blood anticoagulant for plasma preparation, initial assessments.
A short description of data set [3]: In vitro stability and metabolite scouting of MRS2365 in human plasma. It is filed as in vitro ADME. As to the method: as §1
Plasma Stability Determination: MRS2365, enalapril and procaine were solubilized in phosphate-buffered saline, pH 7.4. […] Stability incubations were initiated with the addition of MRS2365 (1 μM final concentration). Initial assessments of stability in EDTA-generated plasma utilized incubation timepoints of 0, 10, 30, 60, 120 and 240 minutes (FIGS. 3 and 4). […]
(§2) Plasma and blood samples were also qualitatively analyzed for MRS2365 metabolites utilizing a LC-MS/MS-based “metabolite scouting” protocol. […] Blood and plasma samples were analyzed by both positive- and negative-ion LC/MS-MS for parent compound and metabolites as it was anticipated that the phosphorylated compounds would preferentially generate negative ions while the riboside MRS4322 would preferentially generate positive ions. In positive-ion mode, extracted ion chromatograms monitored masses in the range of 323.7-324.7 and 403.7-404.7 to scout for MRS4322 and MRS2347, respectively. Any ion peaks in these ranges were further analyzed to generate product ion spectra for these ion chromatogram peaks. […]

The nature of data set [4]: In vitro stability and metabolite scouting of MRS2365 in human whole blood. Format: in vitro ADME. Particulars: 100 μM in human whole blood, lithium heparin as anti-coagulant. As to the method:
as §1
Blood sample aliquots were obtained at 0, 1, 2.5, 7.5, 10 and 30 minutes and placed in microtainer tubes. For metabolite scouting analyses, MRS2365 was incubated in heparinized human whole blood at a concentration of 100 μM for 10 or 30 minutes (FIG. 10). In all studies, plasma was immediately prepared by centrifugation at 4° C., placed in microtainer tubes, frozen on dry ice and stored at −80° C. until analysis. […]
as §2

A short description of data set [5]: Stability of MRS2365 incubated in phosphate-buffered saline. Format: physicochemical.
Data set [6] can be described thus: Pharmacokinetics of MRS4322 following intraperitoneal administration of MRS2365 to mice. Format: in vivo. The note with it: for Plasma Concentration by Subject / Plasma Concentration Mean / Brain Concentration by Subject / Brain Concentration Mean: MRS4322 in mice after MRS2365 0.24 mg/kg i.p.; for Plasma Concentration by Subject / Brain Concentration by Subject: subjects A-C; for Plasma Concentration by Subject / Plasma Concentration Mean: BLQ = below 2.26 ng/mL; for Brain Concentration by Subject / Brain Concentration Mean: BLQ = below 9.40 ng/g. The method, then: Animals: Female C576BL/6J mice weighing approximately 0.02 Kg were used for this study, supplied by the University of Texas Health Sciences Center (San Antonio, TX). All studies were conducted under approved University of Texas Health Sciences Center IACUC protocols.
Drug Administration: MRS2365 was solubilized in phosphate-buffered saline and then diluted in phosphate-buffered saline to prepare dosing solution. Final dosing solution concentration of MRS2365 was 100 μM. A 100 μL volume of dosing solution was administered intraperitoneally to each mouse per 20 gram body weight; MRS2365 was administered intraperitoneally at 0.5 μmol/kg or 0.24 mg/kg. Three mice were administered MRS2365 for each sampling timepoint.
Tissue Sampling: Blood and brain samples were obtained at 0, 0.083, 0.25, 0.5, 1, 2 and 8 hours post-dose. At each timepoint, mice (3/timepoint) were euthanized in a […] chamber. Whole blood was obtained by cardiac puncture into Microtainer tubes containing heparin and immediately centrifuged for preparation of plasma; plasma was stored at −80° C. At each timepoint, whole brain samples were obtained by decapitation, rinsed in ice-cold phosphate-buffered saline and weighed. Brain samples were then immediately flash-frozen in liquid nitrogen and stored at −80° C.
The following table outlines the LC and MS/MS conditions employed:
The calibration range for the MRS4322 plasma concentration standard curve was 2.26-241 ng/mL. The calibration range for MRS4322 brain concentrations was 2.35-242 ng/mL.
For bioanalysis of brain concentrations of MRS4322, brain samples were homogenized in ice-cold phosphate-buffered saline in a 4× dilution. Aliquots of the resulting diluted brain homogenate were treated with acetonitrile and analyzed by LC-MS/MS. Because of the 4× homogenate dilution, the calibration range of the MRS4322 brain standard curve was translated to 9.40-968 ng/gm. In several samples, MRS4322 were detectable but fell below the brain LLOQ of 9.40 ng/gm but were above background; in these cases the final reported brain concentration was extrapolated based on MS peak heights.

Data set [7] has as its target T1, A3 receptor (Mus musculus, UniProt Q61618).
T1 sequence (Q61618 1-319): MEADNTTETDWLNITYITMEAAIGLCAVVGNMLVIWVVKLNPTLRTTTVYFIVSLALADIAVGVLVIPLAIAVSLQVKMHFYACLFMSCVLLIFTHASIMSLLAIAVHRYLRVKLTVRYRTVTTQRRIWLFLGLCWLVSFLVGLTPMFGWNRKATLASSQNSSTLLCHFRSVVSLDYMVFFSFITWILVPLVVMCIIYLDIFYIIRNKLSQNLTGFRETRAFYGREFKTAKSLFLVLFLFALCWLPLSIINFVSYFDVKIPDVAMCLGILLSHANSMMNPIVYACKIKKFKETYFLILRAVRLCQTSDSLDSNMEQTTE
Description: Affinity at the A3 receptor in the mouse as stated in the discussion. Format: binding.

For `CSc1nc(N)c2ncn([C@H]3[C@H](O)[C@H](O)[C@]4(COP(=O)(O)OP(=O)(O)O)C[C@H]34)c2n1` [MRS2365], the “MRS2365 concentrations during incubation” value in data set [1] is given as “extremely low”; in data set [3] (heparin-treated human plasma, 0-90 seconds, even at 0 and 5 seconds), “extremely low”. Also, the in vivo clearance result in data set [2] is on record as “rapidly cleared at a rate approximating cardiac output”. The “metabolites observed (M2 = MRS2347, M1 = MRS4322)” value in data set [3] (100 μM in human plasma, lithium heparin as anti-coagulant) was “Two metabolites”; in data set [4], “Two metabolites”. For the same compound, the “stability in phosphate-buffered saline” value in data set [5] is listed as “completely stable”. The “metabolic fate following intraperitoneal administration to mice” value in data set [6] (MRS2365 0.5 μmol/kg i.p., mice) was “rapidly and completely metabolized to MRS4322”.
In the case of `CSc1nc(N)c2ncn([C@H]3[C@H](O)[C@H](O)[C@]4(CO)C[C@H]34)c2n1` [MRS4322], the “difference in affinity between MRS4322 and Cl-IB-MECA” value in data set [7] was “approximately 25,000 fold”. Besides, the “Plasma Concentration by Subject” value in data set [6] (0 h) and in data set [6] (8 h) was “BLQ” each time. The “Plasma Concentration Mean” value in data set [6] (0 h) and in data set [6] (8 h) was “BLQ” throughout. Further, the “Brain Concentration by Subject” value in data set [6] (0.083 h), in data set [6] (1 h), in data set [6] (2 h) and in data set [6] (8 h) was “BLQ” in each case. Also, the “Brain Concentration Mean” value in data set [6] (0.083 h), in data set [6] (1 h), in data set [6] (2 h) and in data set [6] (8 h) was “BLQ” in each case.
